Several values for one entry are separate records, joined by “and”; a condition that tells them apart may be missing. Equal values may be shown once. Inconclusive results and toxic doses are left out.
Tested on: P388 leukemia ip, CD2F1 mice, survival T/C
Assay: NCI In Vivo Anticancer Drug Screen. Data for tumor model P388 Leukemia (intraperitoneal) in CD2F1 (CDF1) mice
Details: endpoint: median survival time, higher = longer survival
Method in brief: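 Mice carrying the transplanted tumor received test compound or vehicle. Survival was recorded in each group, and the value is the treated-group measurement divided by that of the vehicle-treated control group.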

[1] = dose: 60.0 mg/kg/injection, schedule: Q01DX005 (ip), vehicle: saline with Tween-80
[2] = dose: 120.0 mg/kg/injection, schedule: Q01DX005 (ip), vehicle: saline with Tween-80
[3] = dose: 240.0 mg/kg/injection, schedule: Q01DX005 (ip), vehicle: saline with Tween-80
[4] = dose: 50.0 mg/kg/injection, schedule: Q01DX009 (ip), vehicle: saline
[5] = dose: 50.0 mg/kg/injection, schedule: Q01DX005 (ip), vehicle: saline with Tween-80
[6] = dose: 100.0 mg/kg/injection, schedule: Q01DX005 (ip), vehicle: saline with Tween-80
[7] = dose: 200.0 mg/kg/injection, schedule: Q01DX005 (ip), vehicle: saline with Tween-80
[8] = dose: 12.5 mg/kg/injection, schedule: Q01DX009 (ip), vehicle: saline
[9] = dose: 50.0 mg/kg/injection, schedule: Q01DX009 (ip), vehicle: saline with Tween-80
[10] = dose: 100.0 mg/kg/injection, schedule: Q01DX009 (ip), vehicle: saline with Tween-80
[11] = dose: 200.0 mg/kg/injection, schedule: Q01DX009 (ip), vehicle: saline with Tween-80
[12] = dose: 400.0 mg/kg/injection, schedule: Q01DX009 (ip), vehicle: saline with Tween-80
[13] = dose: 50.0 mg/kg/injection, schedule: Q01DX005 (ip), vehicle: Klucel (hydroxypropylcellulose) (HPC)
[14] = dose: 100.0 mg/kg/injection, schedule: Q01DX005 (ip), vehicle: Klucel (hydroxypropylcellulose) (HPC)
[15] = dose: 50.0 mg/kg/injection, schedule: Q01DX009 (ip), vehicle: Klucel (hydroxypropylcellulose) (HPC)
[16] = dose: 100.0 mg/kg/injection, schedule: Q01DX009 (ip), vehicle: Klucel (hydroxypropylcellulose) (HPC)
[17] = dose: 200.0 mg/kg/injection, schedule: Q01DX009 (ip), vehicle: Klucel (hydroxypropylcellulose) (HPC)
[18] = dose: 25.0 mg/kg/injection, schedule: Q01DX009 (ip), vehicle: saline with Tween-80
[19] = dose: 12.5 mg/kg/injection, schedule: Q01DX009 (ip), vehicle: saline with Tween-80
[20] = dose: 100.0 mg/kg/injection, schedule: Q01DX009 (ip), vehicle: saline
[21] = dose: 200.0 mg/kg/injection, schedule: Q01DX009 (ip), vehicle: saline

In the case of `CS1(C)=NC(=O)C2=C(N=1)c1ccccc1S2(=O)=O`, the T/C [1] is reported as 97 % of control, the T/C [2] is reported as 94 % of control and the T/C [3] is reported as 89 % of control.

With `C=CCN(C#N)CC=C` the T/C [4] was 96 % of control.

`COc1ccc2c(c1)OC(=O)C(S(=O)(=O)c1ccccc1)C2` (stereo not drawn) was tested, and the T/C [5] was 102 % of control, the T/C [6] was 96 % of control and the T/C [7] was 101 % of control.

For `OC1(c2nccc3ccccc23)CCN(CCc2ccccc2)CC1`, the T/C [8] was 102 % of control, the T/C (dose: 25.0 mg/kg/injection, schedule: Q01DX009 (ip), vehicle: saline) was 97 % of control and the T/C [9] was 87 % of control. The T/C [4] was 108 % of control.

With `O=C(O)CCCc1ccccc1[N+](=O)[O-]` the T/C [9] was 105 % of control, the T/C [10] was 105 % of control and the T/C [11] was 103 % of control. The T/C [12] was 105 % of control.

For `CCN(CC)C1=CC(=O)OC1OC` (stereo not drawn), the T/C (dose: 60.0 mg/kg/injection, schedule: Q01DX005 (ip), vehicle: saline) was 95 % of control and the T/C (dose: 120.0 mg/kg/injection, schedule: Q01DX005 (ip), vehicle: saline) was 94 % of control.

With `COc1cc(C(C)c2cc3c(cc2OCCO)OCO3)cc(OC)c1OC` (stereo not drawn) the T/C (dose: 25.0 mg/kg/injection, schedule: Q01DX005 (ip), vehicle: saline with Tween-80) was 92 % of control and 94 % of control and the T/C (dose: 400.0 mg/kg/injection, schedule: Q01DX005 (ip), vehicle: saline with Tween-80) was 161 % of control and 180 % of control.

In the case of `Cc1cc(/C=C2\SC(=S)NC2=O)cc(C)c1O`, the T/C [5] is reported as 110 % of control, the T/C [6] is reported as 94 % of control and the T/C [7] is reported as 90 % of control.

In the case of `Cc1cc[n+](C2C(=O)c3ccccc3C(=O)C2Nc2cc(Cl)ccc2Cl)cc1` (stereo not drawn), the T/C [1] is reported as 106 % of control, the T/C [2] is reported as 108 % of control and the T/C [3] is reported as 105 % of control.

With `O=c1c(C(=Nc2ccccc2)c2ccccc2)c[nH]n1-c1ccccc1` the T/C [1] was 105 % of control, the T/C [2] was 105 % of control and the T/C [3] was 105 % of control.

`O=C1/C(=C/c2ccncc2)CCCc2ccccc21` was tested, and the T/C (dose: 60.0 mg/kg/injection, schedule: Q01DX005 (ip), vehicle: Klucel (hydroxypropylcellulose) (HPC)) was 102 % of control and the T/C (dose: 120.0 mg/kg/injection, schedule: Q01DX005 (ip), vehicle: Klucel (hydroxypropylcellulose) (HPC)) was 104 % of control.

With `O=c1c2ccccc2c(=O)n2n1C1CCC2C1` the T/C [13] was 96 % of control, the T/C [14] was 110 % of control and the T/C (dose: 200.0 mg/kg/injection, schedule: Q01DX005 (ip), vehicle: Klucel (hydroxypropylcellulose) (HPC)) was 100 % of control.

With `Cc1no[n+]([O-])c1NC(=O)OCc1ccccc1` the T/C (dose: 7.5 mg/kg/injection, schedule: Q01DX005 (ip), vehicle: saline with Tween-80) was 96 % of control, the T/C (dose: 15.0 mg/kg/injection, schedule: Q01DX005 (ip), vehicle: saline with Tween-80) was 100 % of control and the T/C (dose: 30.0 mg/kg/injection, schedule: Q01DX005 (ip), vehicle: saline with Tween-80) was 99 % of control. The T/C [1] was 107 % of control, the T/C [2] was 101 % of control and the T/C [3] was 100 % of control.

With `C1=NCc2nnn(Cc3ccccc3)c2N1` the T/C [15] was 102 % of control, the T/C [16] was 98 % of control and the T/C [17] was 108 % of control.

With `Nc1ccc2[nH]c(=S)[nH]c2c1` the T/C (dose: 10.0 mg/kg/injection, schedule: Q01DX009 (ip), vehicle: saline with Tween-80) was 100 % of control, the T/C (dose: 20.0 mg/kg/injection, schedule: Q01DX009 (ip), vehicle: saline with Tween-80) was 104 % of control and the T/C (dose: 40.0 mg/kg/injection, schedule: Q01DX009 (ip), vehicle: saline with Tween-80) was 100 % of control. The T/C [10] was 95 % of control and the T/C [12] was 95 % of control.

In the case of `O=NNc1c2ccccc2nc2ccccc12`, the T/C (dose: 0.09 mg/kg/injection, schedule: Q01DX009 (ip), vehicle: water) is reported as 99 % of control, the T/C (dose: 0.18 mg/kg/injection, schedule: Q01DX009 (ip), vehicle: water) is reported as 95 % of control and the T/C (dose: 0.37 mg/kg/injection, schedule: Q01DX009 (ip), vehicle: water) is reported as 101 % of control. The T/C (dose: 0.75 mg/kg/injection, schedule: Q01DX009 (ip), vehicle: water) was 104 % of control and the T/C (dose: 1.5 mg/kg/injection, schedule: Q01DX009 (ip), vehicle: water) was 86 % of control.

With `CCOC(=O)C1(c2ccccc2)C(=O)Oc2ccccc21` (stereo not drawn) the T/C [9] was 107 % of control, the T/C [10] was 124 % of control and the T/C [11] was 106 % of control.

`C/C=C/Cc1nnc(C)c2c(C)[nH]nc12` was tested, and the T/C [9] was 100 % of control, the T/C [10] was 96 % of control and the T/C [11] was 102 % of control.

`Cc1cccc(/C=N/N2CCN(C(c3ccccc3)c3ccccc3)CC2)n1` was tested, and the T/C (dose: 100.0 mg/kg/injection, schedule: Q01DX001 (ip), vehicle: Klucel (hydroxypropylcellulose) (HPC)) was 100 % of control, the T/C (dose: 200.0 mg/kg/injection, schedule: Q01DX001 (ip), vehicle: Klucel (hydroxypropylcellulose) (HPC)) was 97 % of control and the T/C (dose: 400.0 mg/kg/injection, schedule: Q01DX001 (ip), vehicle: Klucel (hydroxypropylcellulose) (HPC)) was 100 % of control.

`C(COCC1CO1)OCC1CO1` (stereo not drawn) was tested, and the T/C [8] was 120 % of control and the T/C [4] was 150 % of control.

`O=[N+]([O-])c1cc([N+](=O)[O-])c2ccccc2c1NS(=O)(=O)c1ccc(Br)cc1` was tested, and the T/C [18] was 103 % of control and the T/C [9] was 117 % of control.

In the case of `Cc1nn(C23CC4CC(CC(C4)C2)C3)c(C(Cl)Cl)c1Cl`, the T/C [1] is reported as 100 % of control, the T/C [2] is reported as 94 % of control and the T/C [3] is reported as 94 % of control.

With `Nc1nc(=S)c2n[nH]nc2[nH]1` the T/C (dose: 11.0 mg/kg/injection, schedule: Q01DX009 (ip), vehicle: saline with Tween-80) was 101 % of control and 105 % of control, the T/C [19] was 104 % of control and the T/C (dose: 16.5 mg/kg/injection, schedule: Q01DX009 (ip), vehicle: saline with Tween-80) was 98 % of control and 103 % of control. The T/C [18] was 103 % of control and 91 % of control and the T/C (dose: 37.5 mg/kg/injection, schedule: Q01DX009 (ip), vehicle: saline with Tween-80) was 98 % of control and 101 % of control.

`NCc1ccc(O)c(O)c1O` was tested, and the T/C [4] was 121 % of control and 123 % of control, the T/C [20] was 118 % of control and 120 % of control and the T/C [21] was 124 % of control and 88 % of control.

For `O=c1cc(CCl)occ1O`, the T/C [4] was 100 % of control and 113 % of control, the T/C [20] was 101 % of control and 103 % of control and the T/C [21] was 100 % of control and 113 % of control. For the same compound, the T/C (dose: 400.0 mg/kg/injection, schedule: Q01DX009 (ip), vehicle: saline) was 110 % of control and 95 % of control.

`CC(C)c1ccccc1[S+]1OC(C)(C)c2ccccc21` (stereo not drawn) was tested, and the T/C [15] was 107 % of control, the T/C [16] was 103 % of control and the T/C [17] was 95 % of control.

For `CCCCCC(C)COS(=O)(=O)c1ccc([N+](C)(C)C)cc1` (stereo not drawn), the T/C [19] was 102 % of control, the T/C [18] was 103 % of control and the T/C [9] was 105 % of control.

`C=CCOc1cc2c(cc1C(C)(C)c1ccc(OC)cc1)OCO2` was tested, and the T/C [1] was 118 % of control and the T/C [2] was 117 % of control.

In the case of `CCOC(=O)CCC1=C(C)c2cc3[n-]c(cc4nc(cc5[n-]c(cc1n2)c(CCC(=O)OCC)c5C)C=C4C)cc3C.[Ni+2]`, the T/C [13] is reported as 96 % of control and the T/C [14] is reported as 92 % of control.

In the case of `CC(C)N1NC1(C)C` (stereo not drawn), the T/C [5] is reported as 107 % of control, the T/C [6] is reported as 107 % of control and the T/C [7] is reported as 100 % of control.

With `C/C(=N/N(C)C)c1ccncc1` the T/C [15] was 104 % of control, the T/C [16] was 107 % of control and the T/C [17] was 113 % of control.

In the case of `Cc1onc(-c2c(F)cccc2Cl)c1C(=O)OCc1c(F)cccc1Cl`, the T/C [1] is reported as 99 % of control, the T/C [2] is reported as 97 % of control and the T/C [3] is reported as 97 % of control.

`COc1ccc2c(c1OC)[C@]13CCCC[C@@H]1[C@H](C2)N(C)CC3` was tested, and the T/C (dose: 12.5 mg/kg/injection, schedule: Q04DX003 (ip), vehicle: saline) was 101 % of control, the T/C (dose: 25.0 mg/kg/injection, schedule: Q04DX003 (ip), vehicle: saline) was 100 % of control and the T/C (dose: 50.0 mg/kg/injection, schedule: Q04DX003 (ip), vehicle: saline) was 100 % of control.

With `On1cc/c(=N\N=C\c2ccc(N(CCCl)CCCl)cc2)c2ccccc21` the T/C (dose: 100.0 mg/kg/injection, schedule: Q04DX003 (ip), vehicle: saline + Tween-80 + alcohol) was 99 % of control, the T/C (dose: 200.0 mg/kg/injection, schedule: Q04DX003 (ip), vehicle: saline + Tween-80 + alcohol) was 106 % of control and the T/C (dose: 400.0 mg/kg/injection, schedule: Q04DX003 (ip), vehicle: saline + Tween-80 + alcohol) was 102 % of control.

With `Nc1nc(N)nc(N/C=C/C(=O)O)n1` the T/C (dose: 50.0 mg/kg/injection, schedule: Q01DX005 (ip), vehicle: water) was 99 % of control, the T/C (dose: 100.0 mg/kg/injection, schedule: Q01DX005 (ip), vehicle: water) was 105 % of control and the T/C (dose: 200.0 mg/kg/injection, schedule: Q01DX005 (ip), vehicle: water) was 106 % of control.

Reference: PubChem BioAssay AID330 (DTP/NCI, 2004)
